{
  "source": "patent US20070112076A1",
  "about": "“Methods and materials for treating retinopathy” (SOUTHERN ILLINOIS UNIVERSITY, priority 2005, published 2007)",
  "key": {"[1]": {"test_system": "iNOS protein expression in human retinal endothelial cells", "experiment": "Western blot of iNOS protein expression after agonist treatment of retinal endothelial cells", "assay_type": "cell-based", "method": "(§1) Denaturing sample buffer (1 ml 2×GDW, 640 μl 1 M Tris-HCl, pH 6.8, 420 μl 30% glycerol, 250 μl β-mercaptoethanol, 200 μL 0.05% bromophenol blue, and 0.125 g recrystallized SDS) was added to 50 μg of protein, as determined by Bradford assay. Protein samples with sample buffer were centrifuged for 5 min to thoroughly mix the samples, followed by heat denaturation for 5 min at 100° C. Protein samples were then separated on 4-12% pre-cast tris-glycine gels (Invitrogen, Carlsbad, Calif.). Electrophoresis and immunoblotting were done as previously described (Steinle et al., J. Biol. Chem. 278 (2003) (23), pp. 20681-20686) using antibodies to iNOS (diluted 1:500, Chemicon, Temecula, Calif.) and PGE2-EP2 receptor subtype (diluted 1:500, Chemicon). Mean densitometry of immunoreactive bands was assessed using Kodak software, and results are expressed in densitometric units. A paired T-test was performed between the sympathectomized and contralateral retina with significance accepted at P<0.05.\n(§2) Initial studies focused on human retinal endothelial cells, which express β-adrenergic receptors. Human microvascular retinal endothelial cells were isolated by Applied Cell Biology Research Institute and sold by Cell Systems (Kirkland, Wash.). Cells were used at passage 3-5 for all experiments. Cells were identified as endothelial cells on the basis of their cobblestone morphology. Cells were grown in attachment factor-coated Corning® dishes and in either high or low glucose media. Both high and low glucose media were identical (purchased from Cell Systems and supplemented with 20% fetal bovine serum, 100 IU/ml penicillin, 100 μg/ml streptomycin, and 0.25 μg/ml amphotericin B) except for the glucose concentration: 25 mM glucose (high glc) or 5 mM glucose (low glc). Cells were adjusted to the appropriate glucose environment for 5 days before the experiments were conducted in starvation medium. Starvation medium had the appropriate concentration of glucose and contains all of the above ingredients except that 0.2% bovine serum albumin is substituted for 20% serum.\nFor experiments, cells were starved for 18-24 h using starvation medium to insure that the results obtained are due to agonist stimulation, not residual effects from the serum. Following starvation, 10 μM isoproterenol (non-specific β-adrenergic receptor agonist), 10 μM xamoterol (β1-adrenergic receptor subtype agonist), or 10 μM BRL37344 (β3-adrenergic receptor subtype agonist) was placed onto dishes and allowed to act on the cells for 1, 2, or 6 h. Three dishes received no treatment and serve as not-treated controls. […] The effects of xamoterol and BRL37344 were evaluated under high glucose conditions only. […]"}, "[2]": {"test_system": "PGE2 levels in human retinal endothelial cells", "experiment": "PGE2 ELISA in retinal endothelial cells after agonist treatment", "assay_type": "cell-based", "details": "low or high glucose media, 10 μM, 1, 2 or 6 h", "from_the_text": "as §2, with “An ELISA assay to measure PGE2 content in cell culture supernatants and retinal samples was purchased from Endogen (Pierce Biotechnology, Rockford, Ill.) and used according to the manufacturer's instructions. Initial” for “Initial”, “serum. […] The effects of xamoterol and BRL37344 were evaluated under high glucose conditions only.” for “serum.”"}, "[3]": {"test_system": "PGE2-EP2 receptor subtype expression in human retinal endothelial cells", "experiment": "Western blot of PGE2-EP2 receptor subtype expression in retinal endothelial cells", "assay_type": "cell-based", "details": "low or high glucose media, 10 μM, 1, 2 or 6 h", "method": "as §1\nInitial studies focused on human retinal endothelial cells, which express β-adrenergic receptors. […]\nFor experiments, cells were starved for 18-24 h using starvation medium to insure that the results obtained are due to agonist stimulation, not residual effects from the serum. […] The effects of xamoterol and BRL37344 were evaluated under high glucose conditions only. […]"}, "[4]": {"test_system": "PKA activity in the retina", "experiment": "PKA ELISA on retinal lysates after eye drops", "assay_type": "in vivo, rat", "details": "4 drops of 100 μM eye drops", "method": "Three groups of animals were used for these experiments. The first group was made diabetic by a single injection of 60 mg/kg streptozotocin and allowed to remain diabetic for 2.5 month and received 4 drops of 100 μM isoproterenol placed into both eyes (STZ). The other two groups were control groups, with one group being non-diabetic but receiving the 100 μM isoproterenol eye drops (Normal), and the other group not receiving any treatment (NT). At 4, 8 and 12 hours after treatment with isoproterenol, retina from the rats was assayed for PKA by ELISA and CREB by Western blot analysis. The retina of rats from each group was assayed for PKA by ELISA. Three rats were evaluated at each time point (4 hours, 8 hours and 12 hours). The PKA ELISA was carried out using the […] Protein Kinase Assay System from Upstate (Lake Placid, N.Y.). To begin the experiments, 0.1M ATP was made and set to a pH of 7.0. cAMP at a concentration of 20 μM was made with reagents purchased from Sigma Aldrich. To obtain the samples to be assayed, animals were sacrificed and the retina was removed and placed in reaction buffer supplied in the kit. One hundred microliters of each sample in reaction buffer was placed into coated wells of a 96-well plate in duplicate. […] Following application of 100 μL of stop solution to end the reaction with the substrate, the plate was read at 490 nm on a BioTek Plate Reader."}, "[5]": {"test_system": "CREB protein expression in the retina", "experiment": "Western blot of CREB protein expression in retina after eye drops", "assay_type": "in vivo, rat", "details": "100 μM eye drops, diabetic animals, 8 hours, compared to the normal group", "method": "Three groups of animals were used for these experiments. The first group was made diabetic by a single injection of 60 mg/kg streptozotocin and allowed to remain diabetic for 2.5 month and received 4 drops of 100 μM isoproterenol placed into both eyes (STZ). The other two groups were control groups, with one group being non-diabetic but receiving the 100 μM isoproterenol eye drops (Normal), and the other group not receiving any treatment (NT). At 4, 8 and 12 hours after treatment with isoproterenol, retina from the rats was assayed for PKA by ELISA and CREB by Western blot analysis.\nWestern blot analysis was also done to determine protein expression of CREB. Two rats were evaluated at each time point (4 hours, 8 hours and 12 hours). Animals were sacrificed and the eyes were removed. The retina was extracted and placed into lysis buffer (50 mM Tris-HCL, pH 7.4; 1% NP-40, 0.25% Na-deoxycholate; 150 mM NaCl; 1 mM EDTA; 1 mM PMSF; 1 μg/ml each of aprotinin, leupeptin, pepstatin; 1 mM Na3VO4; 1 mM NaF; 0.1% SDS). Protein lysates were homogenized and centrifuged to generate a pellet and supernatant. […] Immunoreactive bands were detected by enhanced SuperSignal (Pierce, Rockford, Ill.) and analyzed using the Kodak 2000R image station. Mean densitometry was assessed using Kodak software, and results are expressed as a percentage of the not treated eyes. […]"}, "retina": {"test_system": "retina", "details": "osmotic pump in the rat; cited from earlier work"}, "[6]": {"details": "high glucose medium, 10 μM, 1, 2 or 6 h, vs. NT"}},
  "data": [
    {"smiles": "C[C@H](Cc1ccc(OCC(=O)O)cc1)NC[C@H](O)c1cccc(Cl)c1", "note": "[BRL37344]", "values": [
      {"measurement": "iNOS protein expression", "setting": "[1]; [6]", "result": "no effect"}
    ]},
    {"smiles": "CC(C)NCC(O)c1ccc(O)c(O)c1", "note": "(centres unmarked) [isoproterenol]", "values": [
      {"measurement": "iNOS protein expression", "setting": "[1]; high glucose (25 mM) medium, 10 μM, 6 h, P<0.05 vs. not treated", "result": "significantly reduced"},
      {"measurement": "iNOS protein expression", "setting": "[1]; low glucose (5 mM) medium, 10 μM, 6 h, P<0.05 vs. not treated", "result": "upregulation"},
      {"measurement": "PGE2 protein levels", "setting": "[2]", "result": "did not affect"},
      {"measurement": "PGE2-EP2 receptor subtype expression", "setting": "[3]", "result": "did not affect"},
      {"measurement": "PKA activity in retina", "setting": "[4]; 12 hours after treatment", "result": "significantly increased at 12 hours after treatment relative to the normal, but not when compared to the not treated group"},
      {"measurement": "PKA activity in retina", "setting": "[4]; STZ diabetic rats, 8-hour time point, P<0.05 vs. not-treated and vs. normal", "result": "significantly increased"},
      {"measurement": "CREB protein expression in retina", "setting": "[5]", "result": "substantial increase"}
    ]},
    {"smiles": "Cc1ccc(N(CC2=NCCN2)c2cccc(O)c2)cc1", "note": "[phentolamine]", "values": [
      {"measurement": "retinal changes as observed after sympathectomy", "setting": "retina", "result": "no effect"}
    ]},
    {"smiles": "CC(C)NCC(O)COc1cccc2ccccc12", "note": "(centres unmarked) [propranolol]", "values": [
      {"measurement": "retinal changes as observed after sympathectomy", "setting": "retina", "result": "can be mimicked"}
    ]},
    {"smiles": "O=C(NCCNCC(O)COc1ccc(O)cc1)N1CCOCC1", "note": "(centres unmarked) [xamoterol]", "values": [
      {"measurement": "iNOS protein expression", "setting": "[1]; [6]", "result": "decreased iNOS protein expression"}
    ]}
  ]
}
